Measured values from paper PMC8287923, “A small-molecule chemical interface for molecular programs” (Nucleic Acids Research, 2021).

Key:
Assay type in all cases: biochemical
LacI = biological target: T1, LacI (Escherichia coli, UniProt P03023); experiment: purified LacI with O1 operator DNA template (psTLacI); PEN-DNA fluorescent switch dose response ([…])
T1 construct: purified LacI with C-terminal His-tag (dimer)

[1] = biological target: T2, Tryptophan synthase subunit B (TrpB), EcB (Escherichia coli, UniProt P0A879, M149T/N171D); experiment: HPLC of overnight enzymatic conversion of indole and L-serine to L-trp
T2 construct: purified standalone TrpB variant (EcB)
T2 sequence (P0A879 2-397 M149T/N171D): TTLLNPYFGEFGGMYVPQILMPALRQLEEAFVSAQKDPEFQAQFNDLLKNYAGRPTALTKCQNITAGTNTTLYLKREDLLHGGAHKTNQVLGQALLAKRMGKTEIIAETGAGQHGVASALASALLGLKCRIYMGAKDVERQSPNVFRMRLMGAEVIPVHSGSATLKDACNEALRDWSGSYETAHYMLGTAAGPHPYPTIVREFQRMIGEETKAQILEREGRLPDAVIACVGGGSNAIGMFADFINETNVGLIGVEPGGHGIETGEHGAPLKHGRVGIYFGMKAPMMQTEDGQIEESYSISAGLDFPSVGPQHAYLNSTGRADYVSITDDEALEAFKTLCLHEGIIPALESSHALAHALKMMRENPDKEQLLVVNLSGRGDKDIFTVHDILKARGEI

TrpR = TrpR (Escherichia coli, UniProt P0A881); experiment: purified TrpR with operator DNA template (psTTrpR); PEN-DNA fluorescent switch dose response, Hill fit

CC(C)S[C@@H]1O[C@H](CO)[C@H](O)[C@H](O)[C@H]1O [IPTG, isopropyl β-d-1-thiogalactopyranoside]
Kd (LacI): ~100 µM

N[C@@H](CO)C(=O)O [L-serine]
HPLC of overnight enzymatic conversion of indole and L-serine to L-trp [1]: Enzymatic activity of EcB L-trp synthesis was confirmed through HPLC evaluation.

N[C@@H](Cc1c[nH]c2ccccc12)C(=O)O [L-trp]
Kd (TrpR): 24 µM

c1ccc2[nH]ccc2c1 [indole]
HPLC of overnight enzymatic conversion of indole and L-serine to L-trp [1]: Enzymatic activity of EcB L-trp synthesis was confirmed through HPLC evaluation.
